Experimental findings from the pKa sets of Baltruschat and Czodrowski (2020) are described below.

Broadly, the pKa is the pH at which an ionisable group is half protonated. High values mean a weaker acid or stronger base, low ones a stronger acid or weaker base. The molecule `CCOc1ccccc1C(=O)O` had a pKa (acidic group) of 4.18.
Take `Cn1c([O-])nc2nc[nH]c2c1=O`: under “acidic group”, the pKa was found to be 11.9.
`CCCCCCCCCCCCN(CC(O)CC)CC(O)CC` (stereo not given) yielded a pKa (basic group) of 5.6.
In the case of `Cc1cc(C)n(Cc2cc(C)[nH]n2)n1`, for the setting “basic group”, the pKa was found to be 3.5.
`OCc1cc(-c2ccccc2)nnc1NCCN1CCOCC1` displayed a pKa (basic group) of 6.99.
On the same count and under the same terms, for `CNCC(O)CO` (stereo not given) the value was 9.55; for `c1c(CN2CCNCC[NH2+]CC2)n[nH]c1CN1CCNCC[NH2+]CC1`, 6.8.
On the same count and under the same terms, to `[NH3+][C@@H](Cc1c[nH]cn1)C(=O)NCC(=O)[O-]` belongs 5.8.
As to `S=C1NCCO1`, the pKa (acidic group) is 11.1.
On to `NCc1ccccc1S(N)(=O)=O`, for which the pKa (acidic group) came to 10.1 and the pKa (basic group) was 8.53.
Regarding `O=S1(=O)N=CNc2nc[nH]c21`, under “acidic group”, the pKa was determined as 5.59.
On the same count and under the same terms, to `Oc1ccc(-c2cc(=S)ss2)cc1` belongs 7.86.
As for `CCCCCCCNCc1ccc(C)cc1`, the pKa (basic group) was 10.
For the setting “acidic group”, `O=C(O)C(c1ccc(-c2ccccc2)cc1)C1(O)CCCC1` (stereo not given) had a pKa of 3.65.
Consider `CC(C)N(C)C`, for which the pKa (basic group) was 10.3.
Turning to `O=C(O)/C=C\c1cccc([N+](=O)[O-])c1`, for the setting “acidic group”, the pKa was 3.63.
For the molecule `O=C(O)c1ccc([N+](=O)[O-])cc1O`, the pKa (acidic group) came out at 1.83.
Consider `CSCc1cccc(CSC)n1`, for which the pKa (basic group) turned out to be 4.19.
Same read-out and setting: for `Nc1cnc2ccccc2n1` the value was 3.93.
On to `O=C(O)Cn1ccc2ccccc21`, for which the pKa (acidic group) stood at 3.4.
For `CC1(C)CC(=O)C(C)(C)N1`, the pKa (basic group) was 7.1.
The molecule `O=S(=O)(Nc1cccc(C(F)(F)F)c1)C(F)(F)F` gave a pKa (acidic group) of 3.5.
The same measure, in the same setting: to `O=C(O)C(c1ccc(-c2ccccc2)cc1)C(O)c1ccccc1` (stereo not given) belongs 4.25.
In turn, `Cc1cnc2c(c1)c(C)cc1c(C)ccnc12` returned a pKa (basic group) of 5.9.
`Cc1nn(C)c(O)c1-c1ccccc1` returned a pKa (acidic group) of 10.9.
In turn, `Nc1cccc([I+]c2ccccc2)c1` gave a pKa (basic group) of 1.87.
The same measure, in the same setting: for `CCCNCC(=O)Nc1c(C)cccc1C` the value was 8.01.
In turn, `NC(=S)Nc1ccc([N+](=O)[O-])cc1` showed a pKa (acidic group) of 10.8.
Regarding `Nc1nnnn1-c1ccc(Cl)cc1`, the pKa (basic group) was found to be 0.78.
Still for that read-out and setting: to `N#Cc1cc(-c2ccccc2)nnc1NCCN1CCOCC1` belongs 6.5; to `ClCC1CN2CCC1CC2` (stereo not given), 10.2.
Molecule `OCCC[n+]1cc(Br)c2ccccc2c1` had a pKa (acidic group) of 12.
`C[N+](C)(C)CCC[N+](C)(C)CCCNC(=O)/C=N/O`: the pKa (acidic group) was determined as 8.31.
Consider `NC(=O)c1ccc(N)cc1O`, for which, where the note is “acidic group”, the pKa was 9.12.
With `O=C1CC(Sc2ccc([N+](=O)[O-])cc2)N1` (stereo not given), the pKa (acidic group) came to 13.
The molecule `Cc1ccc(C)nc1` registered a pKa (basic group) of 6.4.
Same read-out and setting: for `CC(C)/[NH+]=C/N(C)c1ccc(-c2c[nH]cn2)cc1` the value was 5.25.
Still for that read-out and setting: for `Cn1c(=O)c2c(ncn2CC(=O)[O-])n(C)c1=O` the value was 4.48.
Where the note is “basic group”, `CC[NH+](CC)CCN=C(c1ccccc1C)c1ccccc1C` came in with a pKa of 2.8.
Turning to `O=C(O)/C=C/C(=O)c1ccccc1`, under “acidic group”, the pKa came out at 3.34.
`CCCCSCC(=O)O` came in with a pKa (acidic group) of 3.81.
With `C[n+]1ccncc1O`, the pKa (acidic group) is -0.04.
`NC(=O)/C=C(\O)c1cccnc1` registered a pKa (basic group) of 8.01.
`COc1ccc2c3c1O[C@H]1CCC[C@H]4[C@@H](C2)N(C)CC[C@]314` returned a pKa (basic group) of 8.83.
Regarding `CCC(C)NC(C)C` (stereo not given), the pKa (basic group) is 11.
`Cc1cc(O)nn1-c1ccccc1C(=O)[O-]` returned a pKa (acidic group) of 12.2.
The same measure, in the same setting: for `COc1c(O)ccc2c1C[N+]1(C)CCc3cc4c(cc3[C@@H]1C2)OCO4` (stereo not given in full) the value was 8.45.
Consider `Cn1cncc1C[C@H](NC(=O)CCN)C(=O)[O-]`, for which the pKa (basic group) stood at 9.53.
The molecule `N#Cc1ccc(C(=O)O)cc1` had a pKa (acidic group) of 3.53.
On to `CN(C)CCNCC[NH+](C)C`, for which, where the note is “basic group”, the pKa is 8.96.
On the same count and under the same terms, for `CC(C)(C)c1ccccc1N` the value was 3.78.
In the case of `Cc1ccc(O)c(O)c1`, the pKa (acidic group) is 9.62.
Under “acidic group”, `O=C([O-])[C@H](P)CC[C@H](P)C(=O)O` yielded a pKa of 4.49.
`O=C([O-])C(NCCNC(C(=O)[O-])c1ccccc1[O-])c1ccccc1[O-]` (stereo not given): the pKa (basic group) came to 11.7.
For the setting “acidic group”, `c1nnn[nH]1` yielded a pKa of 4.84.
On the same count and under the same terms, to `O=c1cc(-c2ccccc2)oc2cc(O)ccc12` belongs 7.39.
For the molecule `Cn1cnc2c1C(=O)c1ncnc([O-])c1C2=O`, the pKa (basic group) was found to be 6.09.
The same measure, in the same setting: for `C=O` the value was 1.15.
Take `COc1ccc2c(c1)CCC(=O)C2`: under “acidic group”, the pKa amounted to 13.3.
`Cc1cc(NS(=O)(=O)c2ccc(N)cc2)nc(C)n1` yielded a pKa (acidic group) of 7.49.
For `N#CC(C#N)C(C#N)C#N`, the pKa (acidic group) stood at 3.6.
`[S-]c1cccc2cccnc12` gave a pKa (basic group) of 8.29.
Same read-out and setting: to `COc1cccc(C(=O)CCN2CCOCC2)c1` belongs 7.1.
`O=C1/C(=C2\C=CC=CN2)C(=O)c2cc([N+](=O)[O-])ccc21`: the pKa (acidic group) came to 9.26.
As to `CCNNCC`, the pKa (basic group) was 7.66.
On the same count and under the same terms, for `CCN(C)CCCNC(=O)/C=N/[O-]` the value was 9.97.
On the same count and under the same terms, to `CCCSCCN` belongs 9.43.
In the case of `Cc1cc([C@@H]([NH3+])CO)c(O)c([C@@H]([NH3+])CO)c1`, under “acidic group”, the pKa was determined as 6.3.
Under “basic group”, `Cc1nc2c(n1C)C(=O)c1ncnc([O-])c1C2=O` showed a pKa of 6.15.
Turning to `CC(CC(=O)O)C(N)=O` (stereo not given), the pKa (acidic group) is 4.59.
The same measure, in the same setting: to `[NH3+]CCCCCC#CC#CCCC(=O)O` belongs 4.17.
On to `Oc1ccc(-c2nnn[nH]2)cc1`, for which the pKa (acidic group) turned out to be 4.28.
On the same count and under the same terms, to `NC(=O)Nc1ccc([N+](=O)[O-])cc1` belongs 14.
Under “basic group”, `NCC(=O)O` showed a pKa of 9.67.
In the case of `CC(C)CN[N+](=O)[O-]`, the pKa (acidic group) turned out to be 6.38.
Consider `COc1cncnc1[O-]`, for which the pKa (basic group) was 8.6.
The molecule `O=C([O-])Cc1nnn[nH]1` returned a pKa (acidic group) of 5.32.
Still for that read-out and setting: to `Oc1ccc(O)c(Br)c1` belongs 8.67.
For `c1ccc(Oc2ccnc3c2ccc2c(Oc4ccccc4)ccnc23)cc1`, the pKa (basic group) was determined as 5.34.
Under “acidic group”, `CC[NH+](CC)Cc1cc(F)ccc1O` showed a pKa of 8.23.
With `[NH3+]CCN1CCOCC1`, the pKa (basic group) was 4.84.
Where the note is “basic group”, `O=C([O-])CC(c1ncc[nH]1)c1ncc[nH]1` yielded a pKa of 6.9.
Same read-out and setting: to `CCOc1ccc(Nc2ccccc2)cc1` belongs 1.41.
Take `O=C(O)C=C=Cc1ccccc1`: the pKa (acidic group) is 3.7.
For the molecule `NCCC(=O)[O-]`, the pKa (basic group) was determined as 10.2.
`CC1(C)C(=O)[CH-]C(=O)CC1=O` yielded a pKa (acidic group) of 9.73.
In turn, `O=[N+]([O-])c1cc(-c2ccccc2)nnc1NCCN1CCOCC1` yielded a pKa (basic group) of 6.56.
Turning to `CCC(CC(C)C)OO` (stereo not given), where the note is “acidic group”, the pKa turned out to be 12.8.
For the setting “basic group”, `CCN(CC)CCC(C)=O` came in with a pKa of 9.25.
Still for that read-out and setting: to `C[C@H]([NH3+])[C@@H](C)N` belongs 6.84.
Same read-out and setting: for `CC/N=c1\sc(-c2ccccc2)nn1CC` the value was 6.7.
Consider `O=C(O)c1ccccc1F`, for which the pKa (acidic group) came out at 3.6.
Consider `O=C(O)Cc1ccc(-c2ccccc2)cc1`, for which the pKa (acidic group) turned out to be 4.46.
Turning to `OCC1=CCN2CC[C@@H](O)[C@@H]12`, the pKa (basic group) came out at 8.92.
As for `O=C([O-])[C@@H]1O[C@H](Oc2cccc3cccnc23)[C@@H](O)[C@H](O)[C@H]1O`, the pKa (basic group) is 4.62.
Still for that read-out and setting: to `O=[N+]([O-])c1cccc2nccc(NCCCO)c12` belongs 7.06.
The molecule `Oc1cc(Br)cc(Br)c1` yielded a pKa (acidic group) of 8.01.
For `CCCSC(=N)c1ccccc1`, the pKa (basic group) came to 8.1.
On to `C#CC(=O)O`, for which the pKa (acidic group) turned out to be 1.89.
Still for that read-out and setting: for `Cc1c(C(=O)O)cccc1[N+](=O)[O-]` the value was 2.98.
For the molecule `CS(=O)Cc1ccccn1` (stereo not given), the pKa (basic group) was 3.1.
For the setting “acidic group”, `N#CCC#N` gave a pKa of 11.2.
On to `Nc1nccc2c1[nH+]cn2CCOCP(=O)(O)O`, for which the pKa by setting is: (acidic group) 1.23; (basic group) 0.15.
Consider `O=[N+]([O-])c1n[nH]c(Oc2ccccc2)n1`, for which the pKa (acidic group) amounted to 4.2.
With `c1ccc2nnccc2c1`, where the note is “basic group”, the pKa is 2.29.
Regarding `CCOC(=O)c1ccccc1-n1nc(O)cc1-c1ccccc1`, the pKa (acidic group) was determined as 12.4.
Under “basic group”, `C#CCCCCN(C)C` returned a pKa of 9.24.
For `Cc1nn(C)c(C)c1C`, the pKa (basic group) was determined as 4.48.
The same measure, in the same setting: to `CCCN(CC)c1ccccc1` belongs 6.39; to `CCOC(=O)CN`, 7.74.
In turn, `[O-]/N=C1\CCCCC\C1=N/O` showed a pKa (acidic group) of 12.3.
For `CN(C)c1cccnc1`, the pKa (basic group) amounted to 6.67.
The same measure, in the same setting: for `CCNCCC(=O)[O-]` the value was 10.6; for `C[C@H]1[C@@H]([NH3+])[C@@H](C)[C@@H](N)[C@@H](C)[C@H]1[NH3+]`, 5.15.
For the setting “acidic group”, `CC(C)CP(=O)(O)CC(C)C` had a pKa of 3.25.
On the same count and under the same terms, to `CCCCCCP(=O)(CCCCCC)CCCCCC` belongs 12.8; to `C[C@@]12CC(=O)N[C@]1(CCC(=O)[O-])C(=O)NC2=O`, 8.1.
As to `O=C([O-])C(CO)NCc1ccccc1O` (stereo not given), the pKa was 10.4 (acidic group) and 8.22 (basic group).
The molecule `CCCN(CCO)CC(C)O` (stereo not given) showed a pKa (basic group) of 8.9.
In the case of `O=C(O)C12CC3CC(CC(C3)C1)C2`, where the note is “acidic group”, the pKa worked out at 4.95.
In turn, `CC(C)(C)[C@]1(O)CCN2C[C@@H](c3ccccc3)c3ccccc3[C@@H]2C1` had a pKa (basic group) of 7.03.
`O=C1CC(S)C(=O)N1` (stereo not given): the pKa (acidic group) worked out at 6.65.
Molecule `C[C@H]1[C@@H](N)[C@@H](C)[C@@H]([NH3+])[C@@H](C)[C@H]1N` yielded a pKa (basic group) of 6.73.
For `CC(=O)OCC1CN2CCC1CC2` (stereo not given), the pKa (basic group) turned out to be 10.3.
`C[n+]1cc(O)c2ccccc2c1` displayed a pKa (acidic group) of 4.93.
`CNc1ncnc2nc[nH]c12`: the pKa came to 10 (acidic group) and 4.31 (basic group).
On to `CCN(CC)Cc1cn2nc(-c3ccccc3)cc(C)c2n1`, for which the pKa (basic group) worked out at 8.79.
On the same count and under the same terms, for `Cc1cc(-c2ccc([NH3+])c(C)c2)ccc1N` the value was 3.38.
For the molecule `C[C@@H]1[NH2+][C@H](CCCCCCCC(=O)O)CC[C@@H]1O`, the pKa (acidic group) was determined as 4.6.
For the setting “basic group”, `C[n+]1ccccc1-c1ccccn1` registered a pKa of 0.31.
Consider `Nc1ccc(S(=O)(=O)NCc2ccco2)cc1`, for which the pKa stood at 10.9 (acidic group) and 2.25 (basic group).
In the case of `CSC(=N)Nc1ccccc1`, the pKa (basic group) was 7.14.
For the molecule `Sc1cccc[nH+]1`, the pKa (acidic group) is -1.22.
Consider `CCN(CC)CCSC1CCCCC1`, for which, where the note is “basic group”, the pKa is 8.11.
Consider `[NH3+]CC/C=C/C(=O)O`, for which the pKa (acidic group) was determined as 3.83.
